Assays:
[1] = system: HIV-1 RT-associated RNase H activity, V106A RT; assay: RNase H activity assay, V106A RT; assay type: biochemical, HIV-1 group M subtype B; settings: V106A RT
Experimental: (§1) HIV RT-associated RNase H activity was measured as described in 100 μL reaction volume containing 50 mM Tris-HCl buffer pH 7.8, 6 mM MgCl2, 1 mM dithiothreitol (DTT), 80 mM KCl, 0.25 μM hybrid RNA/DNA 5'-GAUCUGAGCCUGGGAGCU-Fluorescin-3' (HPLC, dry, QC: Mass Check) (available from Metabion) 5'-Dabcyl-AGCTCCCAGGCTCAGATC-3'(HPLC, dry, QC: Mass Check), increasing concentrations of inhibitors, whose dilution were made in water, and different amount of enzymes according to a linear range of dose-response curve: 20 ng of WT RT; 60 ng K103N RT; 37.5 ng V106A RT; 75 ng V108A RT; 5 ng Y181C RT; 50 ng Y188A RT; 30 ng Y188L RT; 100 ng E224A RT; 37.5 ng P225A RT; 20 ng P226A RT; 18 ng F227A RT; 30 ng L228A RT; 30 ng W229A RT; 10 ng M230A RT; 30 ng G231A RT; 62.5 ng N474A RT; 1 μg Y501A RT; 100 ng A502F RT; 37.5 ng A508V RT; 38 ng HIV-1 group O RT. The reaction mixture was incubated for 1 h at 37°C, stopped by addition of EDTA and products were measured with a multilabel counter plate reader Victor 3 (Perkin Elmer model 1420–051) equipped with filters for 490/528 nm (excitation/emission wavelength)

[2] = system: HIV-1 RT-associated RNase H activity, V108A RT; assay: RNase H activity assay, V108A RT; assay type: biochemical, HIV-1 group M subtype B; settings: V108A RT
Experimental: as §1

HIV-2 RT = system: HIV-2 RT; set-up: method as in PMID 15741178; settings: HIV-2 RT versus HIV-1 RT; cited from earlier work
[3] = target: T1, HIV-1 RT-associated RDDP activity, E224A RT (Human immunodeficiency virus type 1 group M subtype B, UniProt P04585, E811A); assay: biochemical; set-up: species or system HIV-1 group M subtype B
T1 construct: The 1:1 ration between the p66/p51 subunits was also verified; made in house; host or cells: E. coli M15

[4] = system: HIV-1 RT-associated RDDP activity, Y188A RT; assay: biochemical; set-up: species or system HIV-1 group M subtype B; settings: Y188A RT
[5] = target: T2, HIV-1 RT-associated RDDP activity, Y188A RT (Human immunodeficiency virus type 1 group M subtype B, UniProt P04585, Y775A); assay: biochemical; set-up: species or system HIV-1 group M subtype B
T2 construct: The 1:1 ration between the p66/p51 subunits was also verified; made in house; host or cells: E. coli M15

[6] = target: T3, HIV-1 RT-associated RDDP activity, P225A RT (Human immunodeficiency virus type 1 group M subtype B, UniProt P04585, P812A); assay: biochemical; set-up: species or system HIV-1 group M subtype B
T3 construct: The 1:1 ration between the p66/p51 subunits was also verified; made in house; host or cells: E. coli M15

[7] = target: T4, HIV-1 RT-associated RDDP activity, M230A RT (Human immunodeficiency virus type 1 group M subtype B, UniProt P04585, M817A); assay: biochemical; set-up: species or system HIV-1 group M subtype B
T4 construct: The 1:1 ration between the p66/p51 subunits was also verified; made in house; host or cells: E. coli M15

[8] = system: HIV-1 RT-associated RDDP activity, M230A RT; assay: biochemical; set-up: species or system HIV-1 group M subtype B; settings: M230A RT
[9] = target: T5, HIV-1 RT-associated RDDP activity, V106A RT (Human immunodeficiency virus type 1 group M subtype B, UniProt P04585, V693A); assay: biochemical; set-up: species or system HIV-1 group M subtype B
T5 construct: The 1:1 ration between the p66/p51 subunits was also verified; made in house; host or cells: E. coli M15

[10] = target: HIV-1 RT-associated RDDP activity, HIV-1 group O RT (Human immunodeficiency virus type 1 group O, UniProt Q79666); assay: RDDP activity assay, HIV-1 group O RT; assay type: biochemical; settings: read-out: IC50 RDDP
Description: Recombinant HIV-1 group O RT was expressed and purified as previously described. It was obtained as a heterodimer composed of subunits of 66 and 51 kDa, with a polyhistidine tag at the C-terminus of p66. For this purpose, the RT p66 subunit encoded within a p66RTB expression vector was co-expressed with the HIV-1 protease in E. coli XL-1 Blue, and the obtained heterodimers were then purified by ionic exchange followed by chromatography on Ni2+-nitriloacetic acid agarose. The enzyme was quantified by active site titration before biochemical studies.
RNA-dependent DNA polymerase (RDDP) activity was measured as described in 25 μL volume containing 60 mM Tris-HCl buffer pH 8.1, 8 mM MgCl2, 60 mM KCl, 13 mM DTT, 2.5 μM poly(A)-oligo(dT), 100 μM dTTP, increasing concentrations of inhibitors, whose dilution were made in water, and different amounts of enzymes according to a linear range of dose-response curve: 6 ng wt RT; 30 ng K103N RT; 12 ng V106ART; 19 ng V108A RT; 1.51.5 ng Y181C RT; 45 ng Y188A RT; 15 ng Y188L RT; 30 ng E224A RT; 15 ng P225A RT; 18 ng P226A RT; 23 ng F227A RT; 15 ng L228A RT; 30 ng W229A RT; 30 ng M230A RT; 15 ng G231A RT; 15 ng N474A RT; 15 ng Y501A RT; 15 ng A502F RT; 19 ng A508V RT; 38 ng HIV-1 group O RT. After enzyme addition, the reaction mixture was incubated for 30 min at 37°C and the stopped by addition of EDTA. […]

[11] = target: T6, HIV-1 RT-associated RDDP activity, N474A RT (Human immunodeficiency virus type 1 group M subtype B, UniProt P04585, N1061A); assay: biochemical; set-up: species or system HIV-1 group M subtype B
T6 construct: The 1:1 ration between the p66/p51 subunits was also verified; made in house; host or cells: E. coli M15

[12] = target: T7, HIV-1 RT-associated RDDP activity, Y501A RT (Human immunodeficiency virus type 1 group M subtype B, UniProt P04585, Y1088A); assay: biochemical; set-up: species or system HIV-1 group M subtype B
T7 construct: The 1:1 ration between the p66/p51 subunits was also verified; made in house; host or cells: E. coli M15

| SMILES | Fold of increase of RNase H IC50 with respect to wt RT [1] | Fold of increase of RNase H IC50 with respect to wt RT [2] | Times less susceptible than the HIV-1 enzyme (HIV-2 RT) | IC50 [3] [µM] | Fold of increase of RDDP IC50 with respect to wt RT ([3]; E224A RT) | Fold of increase of RDDP IC50 with respect to wt RT [4] | IC50 [5] [µM] | IC50 [6] [µM] | Fold of increase of RDDP IC50 with respect to wt RT ([6]; P225A RT) | IC50 [7] [µM] | Fold of increase of RDDP IC50 with respect to wt RT [8] | IC50 [9] [µM] | Fold of increase of RDDP IC50 with respect to wt RT ([9]; V106A RT) | IC50 [10] [µM] | IC50 [11] [µM] | Fold of increase of RDDP IC50 with respect to wt RT ([11]; N474A RT) | IC50 [12] [µM] | Fold of increase of RDDP IC50 with respect to wt RT ([12]; Y501A RT) |
| --- | --- | --- | --- | --- | --- | --- | --- | --- | --- | --- | --- | --- | --- | --- | --- | --- | --- | --- |
| CC(C)c1ccc(O)c(=O)c(O)c1 [BTP, β-thujaplicinol, reference compound] | 0.8 | 0.9 | about 3.7 | – | – | – | – | – | – | – | – | – | – | – | – | – | – | – |
| N#Cc1ccc(-c2csc(NN=C3C(=O)Nc4ccccc43)n2)cc1 [RMNC6, (Z)-4-(2-(2-(2-oxoindolin-3-ylidene)hydrazinyl)thiazol-4-yl)benzonitrile] | – | – | – | 13.8 ± 4.2 | 1.4 | 2.1 | 20.9 ± 4 | 3.1 ± 0.3 | 0.3 | 15 ± 3.5 | 1.5 | 25.1 ± 2.3 | 2.5 | 20.1 ± 7.4 | 12.7 ± 1.7 | 1.3 | 6.6 ± 0.1 | 0.7 |

From PMC4723341, “Ribonuclease H/DNA Polymerase HIV-1 Reverse Transcriptase Dual Inhibitor: Mechanistic Studies on the Allosteric Mode of Action of Isatin-Based Compound RMNC6” (PLoS ONE, 2016)
